Test results from US7601687B2, “Mechanism for identifying drugs for the treatment of type II diabetes” (BioCrine AB, priority 2006, dated 2009).

What was measured:
rat βGK promoter = test: On-line monitoring of βGK promoter-driven GFP expression (prβGK.GFP) in transfected HIT-T15 cells, islet cells and islets; assay type: cell-based, hamster (HIT-T15), rat (islet cells); details: for effect of inhibitor on insulin-stimulated βGK transcription / promoter activity: 5 mU/ml insulin 5 min, 150 nM BIM, 20 μM PD98059, 10 μM PD169316, 100 μM HNMPA-(AM)3, 400 nM AC, FIG. 5; for effect of inhibitor on insulin-stimulated βGK transcription / promoter activity / effect of inhibitor on insulin-stimulated βGK promoter activity (GFP) in the same co-transfected cell: 25 μM LY294002, 10 nM rapamycin; for effect of inhibitor on insulin-stimulated βGK promoter activity (GFP) in the same co-transfected cell: 5 mU/ml insulin, 400 nM AC, 100 μM HNMPA-(AM)3; for βGK promoter-driven GFP expression upon secretagogue stimulation: 50 mM KCl or 1 μM glibenclamide for 5 min at substimulatory glucose
Description: Construction of prIns1.GFP has been described earlier (Leibiger et al., 1998a). Vector prIns1.DsRed was generated by exchanging the EGFP-expression cassette versus the DsRed-expression cassette obtained from pDsRed1-1 (Clontech). Plasmid prβGK.GFP (i.e. prβGK-278.GFP) was generated by exchanging the CAT-SV40pA-expression cassette of prβGK-278.CAT (Leibiger et al., 1994a) versus the EGFP-bGHpA-expression cassette obtained from pRcCMVI.GFP (Moede et al., 1999). […] All vector constructions were verified by DNA sequence analysis. […] Expression constructs pCMV5.PKBα, pCMV5.PKBαΔ308/437, pCMV5.PDK1 and pCMV5.PDK1-antisense were kindly provided by Drs. P. Cohen and D. R. Alessi (MRC Phosphorylation Unit, University of Dundee, UK).
HIT cells were reported to show glucose responsiveness at subphysiological concentrations between 0.1 and 2 mM (Sharma et al., 1995). HIT cells were grown in RPMI 1640 medium supplemented with 100 units/ml penicillin, 100 μg/ml streptomycin, 2 mM glutamine and 10% fetal calf serum at 5% CO2 and 37° C. Pancreatic islets were isolated from normally fed male Wistar rats and from mice by collagenase digestion. Isolated islets were incubated overnight at 5% CO2 and 37° C. in RPMI 1640 medium, supplemented as described above. Transfection of HIT-T15 and islet cells was performed overnight by the lipofectamine technique in RPMI 1640 medium, without serum and antibiotics. For on-line monitoring, cells were grown and transfected on 24-mm glass coverslips. Following transfection, HIT cells were cultured for 12-18 h in RPMI 1640 medium containing 0.1 mM glucose, 10% fetal calf serum and supplemented as above. Before stimulation, islets and islet cells were incubated for 2 h in RPMI 1640 medium, supplemented as above but containing 3 mM glucose. All expression constructs were prepared using the Qiagen Plasmid Maxi Kit (Qiagen), except those used to produce the adenoviruses which where purified by ultracentrifugation via a CsCI-gradient (as described in Sambrook et al, 1989).
Islets were transduced with Ad.rβGK.GFP or Ad.CMV.GFP by incubating 50 islets with 1 ml virus-containing medium for 90 min at 37° C. and 5% CO2. Following transduction, islets were washed 3 times with PBS and cultured further in RPMI 1640 medium. Islets were stimulated 40-72 h after transduction, as described below and analyzed by laser-scanning confocal microscopy.
(§1) All experiments were performed in RPMI 1640 medium, supplemented as above. Protein kinase inhibitors, antibodies or nifedipine were added to the culture medium 30 min prior to stimulation and were kept in the medium throughout stimulation. After stimulation islets, islet cells and HIT cells were cultured further at substimulatory glucose concentrations (0.1 mM for HIT cells and 3 mM for islets and islet cells). For RNA-analysis, islets and cells were harvested 60 min after start of stimulation, if not indicated otherwise. For analysis of protein kinase activities or tyrosine phosphorylation, cells were harvested immediately following stimulation.
(§2) Detection of fluorescence by digital imaging fluorescence microscopy was performed as described previously (Leibiger et al., 1998a; Leibiger et al., 1998b). Briefly, transfected cells were grown on 24-mm glass coverslips. After stimulation the coverslips were placed into a perifusion chamber which was mounted on an inverted microscope (Zeiss Axiovert 135TV). Temperature was kept at 37° C. and the cells were perfused with RPMI 1640 medium. The objective lens used was a Zeiss-Fluar ×40/1.30 oil Imm Korr. Fluorescence imaging was performed with a cooled charged-coupled device camera (CH250 with KAF 1400, Photometrics, Tucson, Ariz.) connected to an imaging system (Inovision) with fluorescence excitation from a SPEX fluorolog-2 CM1T11I spectrofluorometer (Spex Industries).

[1] = test system: rat insulin-I gene promoter; test: On-line monitoring of insulin promoter-driven DsRed/GFP expression (prIns1.DsRed) in transfected HIT-T15 cells and islet cells; assay type: cell-based, hamster (HIT-T15), rat (islet cells)
Description: Construction of prIns1.GFP has been described earlier (Leibiger et al., 1998a). Vector prIns1.DsRed was generated by exchanging the EGFP-expression cassette versus the DsRed-expression cassette obtained from pDsRed1-1 (Clontech). Plasmid prβGK.GFP (i.e. prβGK-278.GFP) was generated by exchanging the CAT-SV40pA-expression cassette of prβGK-278.CAT (Leibiger et al., 1994a) versus the EGFP-bGHpA-expression cassette obtained from pRcCMVI.GFP (Moede et al., 1999). […] All vector constructions were verified by DNA sequence analysis. Constructs for expression of the human Insulin Receptor A and B types, pCMVHIR(A) and pCMVHIR(B) and the control plasmid pCMVstop were kindly provided by Dr. A. Ullrich (Max-Planck-Institute for Biochemistry, Martinsried, Germany). Expression constructs pCMV5.PKBα, pCMV5.PKBαΔ308/437, pCMV5.PDK1 and pCMV5.PDK1-antisense were kindly provided by Drs. P. Cohen and D. R. Alessi (MRC Phosphorylation Unit, University of Dundee, UK).
(§3) Insulin-producing HIT-T15 cells were obtained from ATCC. HIT cells were reported to show glucose responsiveness at subphysiological concentrations between 0.1 and 2 mM (Sharma et al., 1995). HIT cells were grown in RPMI 1640 medium supplemented with 100 units/ml penicillin, 100 μg/ml streptomycin, 2 mM glutamine and 10% fetal calf serum at 5% CO2 and 37° C. Pancreatic islets were isolated from normally fed male Wistar rats and from mice by collagenase digestion. Isolated islets were incubated overnight at 5% CO2 and 37° C. in RPMI 1640 medium, supplemented as described above. Transfection of HIT-T15 and islet cells was performed overnight by the lipofectamine technique in RPMI 1640 medium, without serum and antibiotics. For on-line monitoring, cells were grown and transfected on 24-mm glass coverslips. Following transfection, HIT cells were cultured for 12-18 h in RPMI 1640 medium containing 0.1 mM glucose, 10% fetal calf serum and supplemented as above. Before stimulation, islets and islet cells were incubated for 2 h in RPMI 1640 medium, supplemented as above but containing 3 mM glucose. All expression constructs were prepared using the Qiagen Plasmid Maxi Kit (Qiagen), except those used to produce the adenoviruses which where purified by ultracentrifugation via a CsCI-gradient (as described in Sambrook et al, 1989).
as §1
as §2, with “Industries). The following filter-settings were used: for GFPs65T: excitation at 485 nm, a 505 nm dicroic mirror and an emission band-pass filter of 500-530 nm; for DsRed: excitation at 558 nm, a 565 nm dicroic mirror and a 580 nm long-pass filter for emission […]” for “Industries).”

βGK mRNA = βGK mRNA steady-state levels (comparative RT-PCR) in cultured pancreatic islets / insulin-producing cells; assay type: cell-based, rat; details: 50 mM KCl or 1 μM glibenclamide for 5 min at substimulatory glucose
Method: as §3, §1
RNA Analysis Levels of βGK mRNA were analyzed by RNase-protection assays and comparative RT-PCR. […] Quantification of the protected complexes was performed by phosphorimaging. […] Levels of μGK mRNA were analyzed by RT-PCR using primers 5′-[…]-3′(SEQ ID NO: 1) and 5′-[…]-3′(SEQ ID NO: 2) for characterizing μGK mRNA in HIT cells and primers 5′-[…]-3′(SEQ ID NO: 3) and 5′-[…]-3′(SEQ ID NO: 4) for μGK mRNA in rat and mouse pancreatic islets and islet cells. Levels of μ-actin mRNA were analyzed by RT-PCR using primers 5′-[…]-3′(SEQ ID NO: 5) and 5′-[…]-3′(SEQ ID NO: 6). […] PCR products were separated on a 6% polyacrylamide sequencing gel and analyzed by phosphorimaging. […]

[2] = co-transfected HIT cells, 5 mU insulin/ml (FIG. 9A)
[3] = 2.6 nM IGF-I, insulin-producing cells
[4] = co-transfected HIT cells, 5 mU insulin/ml (FIG. 9B)

Compound: CN(C)CCCn1cc(C2=C(c3c[nH]c4ccccc34)C(=O)NC2=O)c2ccccc21 [bisindolylmalemide I]
- effect of inhibitor on insulin-stimulated βGK transcription / promoter activity (rat βGK promoter): not sensitive

Compound: CO[C@H]1C[C@@H]2CC[C@@H](C)[C@@](O)(O2)C(=O)C(=O)N2CCCC[C@H]2C(=O)O[C@H]([C@H](C)C[C@@H]2CC[C@@H](O)[C@H](OC)C2)CC(=O)[C@H](C)/C=C(\C)[C@@H](O)[C@@H](OC)C(=O)[C@H](C)C[C@H](C)/C=C/C=C/C=C/1C [rapamycin]
- effect of inhibitor on insulin-stimulated βGK transcription / promoter activity (rat βGK promoter): not inhibited
- effect of inhibitor on insulin-stimulated βGK promoter activity (GFP) in the same co-transfected cell (rat βGK promoter): no effect

Compound: COc1cccc(-c2cc(=O)c3ccccc3o2)c1N [PD98059]
- effect of inhibitor on insulin-stimulated βGK transcription / promoter activity (rat βGK promoter): not sensitive

Compound: O=c1cc(N2CCOCC2)oc2c(-c3ccccc3)cccc12 [LY294002]
- effect of inhibitor on insulin-stimulated βGK transcription / promoter activity (rat βGK promoter): not inhibited
- effect of inhibitor on insulin-stimulated βGK promoter activity (GFP) in the same co-transfected cell (rat βGK promoter): no effect
- concentration necessary to completely abolish insulin-stimulated βGK promoter activity (rat βGK promoter; [2]): 100 µM
- concentration that blocked insulin-stimulated insulin promoter activity [1, 2]: 25 µM

Compound: IGF-I
- βGK promoter-driven reporter gene expression upon IGF-I stimulation (rat βGK promoter; [3]): did not activate
- insulin promoter-driven reporter gene expression upon IGF-I stimulation [1, 3]: did not activate

Compound: COc1ccc(Cl)cc1C(=O)NCCc1ccc(S(=O)(=O)NC(=O)NC2CCCCC2)cc1 [glibenclamide]
- βGK mRNA steady state levels upon secretagogue stimulation (βGK mRNA): increase
- βGK promoter-driven GFP expression upon secretagogue stimulation (rat βGK promoter): elevation

Compound: COC[C@H]1OC(=O)c2coc3c2[C@@]1(C)C1=C(C3=O)[C@@H]2CCC(=O)[C@@]2(C)C[C@H]1OC(C)=O [wortmannin]
- concentration necessary to block insulin-stimulated βGK promoter activity (rat βGK promoter; [4]): 150 nM
- concentration sufficient to inhibit insulin-stimulated insulin promoter activity [1, 4]: 50 nM

Compound: [Cl-].[K+] [KCI, KCl]
- βGK mRNA steady state levels upon secretagogue stimulation (βGK mRNA): increase
- βGK promoter-driven GFP expression upon secretagogue stimulation (rat βGK promoter): elevation
